Earlier results in US9168307B2, “Mitochondrial-targeted cationic nanoparticles comprising CaMKII inhibitors and uses thereof for treating and preventing diseases and disorders associated with CaMKII activity” (University of Iowa Research Foundation, priority 2012, dated 2015).

System: CaMKII
Conditions: starting point for dose response curve

Question: For “KRPPKLGQIGRAKRVVIEDDR (SEQ ID NO:1) [peptide]”, which IC50 is on record?
Answer: 100 nM
